Earlier results in patent publication US20060147391A1, “Composition for enhancing oral health” (priority 2002, published 2006).

Test system: oral microorganisms (intraoral bacteria such as Streptococcus mutans, Streptococcus sobrinus and Porphyromonas gingivalis)
Conditions: reported result in vitro (Korean publications, WO 00/67711)

CC(C)=CCC[C@@H](C)c1ccc(C)c(O)c1 [Xanthorrhizol]
antibacterial activity against oral microorganisms: excellent antibacterial activity
